Measurements reported in BindingDB's records for doi:10.1080/14756360802323720 (National University of Mexico City, 2009).

Target: T1, 3-oxo-5-alpha-steroid 4-dehydrogenase 2 (Homo sapiens, UniProt P31213)
T1 sequence (P31213 whole entry): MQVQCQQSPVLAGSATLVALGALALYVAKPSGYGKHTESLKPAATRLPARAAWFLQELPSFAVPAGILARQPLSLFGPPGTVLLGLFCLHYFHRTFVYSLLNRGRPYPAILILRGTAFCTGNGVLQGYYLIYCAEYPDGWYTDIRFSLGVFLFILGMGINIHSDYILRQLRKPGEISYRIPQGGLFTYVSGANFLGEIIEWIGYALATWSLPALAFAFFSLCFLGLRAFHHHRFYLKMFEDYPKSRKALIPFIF
Experiment: 5Alpha-Reductase Activity Assay
Conditions: pH 6.5; 37 °C
Text: The IC50 values for the synthesized steroids with human prostate 5alpha-reductase enzyme.

SMILES	IC50
CC(=O)[C@@]1(OC(=O)c2ccc(Br)cc2)CCC2C3CCC4=CC(=O)CC[C@]4(C)C3CC[C@@]21C (stereo not given in full) [Steroid, 9b]	370 nM
CC(=O)[C@@]1(OC(=O)c2ccccc2)CCC2C3CC[C@@]45O[C@@H]4C(=O)CC[C@]5(C)C3CC[C@@]21C (stereo not given in full) [Steroid, 10a]	13 nM
CC(=O)[C@@]1(OC(=O)c2ccc(Br)cc2)CCC2C3CC[C@@]45O[C@@H]4C(=O)CC[C@]5(C)C3CC[C@@]21C (stereo not given in full) [Steroid, 10b]	4.9 nM
CC(C)(C)NC(=O)[C@H]1CCC2C3CCC4NC(=O)C=C[C@]4(C)C3CC[C@@]21C (stereo not given in full) [Finasteride, 3]	8.5 nM
CC(=O)[C@@]1(OC(=O)c2ccccc2)CCC2C3CCC4=CC(=O)CC[C@]4(C)C3CC[C@@]21C (stereo not given in full) [Steroid, 9a]	360 nM
